Laboratory results: PubChem BioAssay AID2060889 (Molecular Pharmacology Branch, DTP, NCI, 2025)
Blank lines part the entries; values can stand above or below the compound they belong to.

Test system: LG0567-F671-PDC complex spheroids viability
Test: Anticancer human tumor LG0567-F671-PDC patient-derived lung adenocarcinoma cell line growth inhibition [RAS]
Details: for IC50: curve of first compound; for viability, T/C: stronger effect = lower value
Outline: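 Multi-cell-type spheroids: tumor cells plus HUVEC endothelial cells and mesenchymal stem cells. RAS-pathway inhibitors were combined with targeted agents, each dosed in half-log steps down from clinical Cmax, or from 10 microM when Cmax was unknown.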
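Also: spheroids exposed to compound for seven days before readout.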
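For IC50 in this document: luminescence signal used as a proxy for viable cells.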

IC50 (second compound 0.000949 µM): < 31.6 nM
IC50 (second compound 0.003 µM): < 31.6 nM
IC50 (second compound 0.00949 µM): < 31.6 nM
IC50 (second compound 0.03 µM): < 31.6 nM
IC50 (second compound 0.0949 µM): < 31.6 nM
IC50 (second compound 0.3 µM): < 31.6 nM
SMILES: CC(C)NCC(C(=O)N1CCN(c2ncnc3c2C(C)CC3O)CC1)c1ccc(Cl)cc1 (stereo unspecified) + CCn1c(-c2cc(N3CCN(C)CC3)cnc2C(C)OC)c2c3cc(ccc31)-c1csc(n1)CC(NC(=O)C1CC1C)C(=O)N1CCCC(N1)C(=O)OCC(C)(C)C2
viability, T/C (second compound 0.000949 µM, first compound 0.0316 µM): 25.2%
viability, T/C (second compound 0.000949 µM, first compound 0.1 µM): 23.8%
viability, T/C (second compound 0.000949 µM, first compound 0.316 µM): 19.2%
viability, T/C (second compound 0.000949 µM, first compound 1 µM): 14.8%
viability, T/C (second compound 0.000949 µM, first compound 3.16 µM): 12.1%
viability, T/C (second compound 0.000949 µM, first compound 10 µM): 15.1%
viability, T/C (second compound 0.003 µM, first compound 0.0316 µM): 12.2%
viability, T/C (second compound 0.003 µM, first compound 0.1 µM): 10.1%
viability, T/C (second compound 0.003 µM, first compound 0.316 µM): 9.03%
viability, T/C (second compound 0.003 µM, first compound 1 µM): 7.01%
viability, T/C (second compound 0.003 µM, first compound 3.16 µM): 6.61%
viability, T/C (second compound 0.003 µM, first compound 10 µM): 6.58%
viability, T/C (second compound 0.00949 µM, first compound 0.0316 µM): 6.47%
viability, T/C (second compound 0.00949 µM, first compound 0.1 µM): 6.39%
viability, T/C (second compound 0.00949 µM, first compound 0.316 µM): 5.04%
viability, T/C (second compound 0.00949 µM, first compound 1 µM): 4.97%
viability, T/C (second compound 0.00949 µM, first compound 3.16 µM): 3.86%
viability, T/C (second compound 0.00949 µM, first compound 10 µM): 3.52%
viability, T/C (second compound 0.03 µM, first compound 0.0316 µM): 4.03%
viability, T/C (second compound 0.03 µM, first compound 0.1 µM): 3.99%
viability, T/C (second compound 0.03 µM, first compound 0.316 µM): 3.4%
viability, T/C (second compound 0.03 µM, first compound 1 µM): 2.83%
viability, T/C (second compound 0.03 µM, first compound 3.16 µM): 2.4%
viability, T/C (second compound 0.03 µM, first compound 10 µM): 2.51%
viability, T/C (second compound 0.0949 µM, first compound 0.0316 µM): 3.05%
viability, T/C (second compound 0.0949 µM, first compound 0.1 µM): 2.86%
viability, T/C (second compound 0.0949 µM, first compound 0.316 µM): 2.34%
viability, T/C (second compound 0.0949 µM, first compound 1 µM): 1.84%
viability, T/C (second compound 0.0949 µM, first compound 3.16 µM): 1.68%
viability, T/C (second compound 0.0949 µM, first compound 10 µM): 1.73%
viability, T/C (second compound 0.3 µM, first compound 0.0316 µM): 2.97%
viability, T/C (second compound 0.3 µM, first compound 0.1 µM): 2.51%
viability, T/C (second compound 0.3 µM, first compound 0.316 µM): 2.28%
viability, T/C (second compound 0.3 µM, first compound 1 µM): 1.91%
viability, T/C (second compound 0.3 µM, first compound 3.16 µM): 1.51%
viability, T/C (second compound 0.3 µM, first compound 10 µM): 1.41%

IC50 (second compound 0.00316 µM): < 3.16 nM
IC50 (second compound 0.01 µM): < 3.16 nM
IC50 (second compound 0.0316 µM): < 3.16 nM
IC50 (second compound 0.1 µM): < 3.16 nM
IC50 (second compound 0.316 µM): < 3.16 nM
IC50 (second compound 1 µM): < 3.16 nM
SMILES: Nc1ccn(C2OC(CO)C(O)C2(F)F)c(=O)n1 (stereo unspecified) + C=CC(=O)N1CCN(c2nc(OCC3CCCN3C)nc3c(F)c(-c4nc(N)cc(C)c4C(F)(F)F)c(Cl)cc23)C(C)C1
viability, T/C (second compound 0.00316 µM, first compound 0.00316 µM): 18.4%
viability, T/C (second compound 0.00316 µM, first compound 0.01 µM): 16.4%
viability, T/C (second compound 0.00316 µM, first compound 0.0316 µM): 14.8%
viability, T/C (second compound 0.00316 µM, first compound 0.1 µM): 16.6%
viability, T/C (second compound 0.00316 µM, first compound 0.316 µM): 15.9%
viability, T/C (second compound 0.00316 µM, first compound 1 µM): 15.8%
viability, T/C (second compound 0.01 µM, first compound 0.00316 µM): 16.5%
viability, T/C (second compound 0.01 µM, first compound 0.01 µM): 13.8%
viability, T/C (second compound 0.01 µM, first compound 0.0316 µM): 13.9%
viability, T/C (second compound 0.01 µM, first compound 0.1 µM): 14.3%
viability, T/C (second compound 0.01 µM, first compound 0.316 µM): 14.3%
viability, T/C (second compound 0.01 µM, first compound 1 µM): 14.9%
viability, T/C (second compound 0.0316 µM, first compound 0.00316 µM): 15%
viability, T/C (second compound 0.0316 µM, first compound 0.01 µM): 14.2%
viability, T/C (second compound 0.0316 µM, first compound 0.0316 µM): 12.5%
viability, T/C (second compound 0.0316 µM, first compound 0.1 µM): 14.5%
viability, T/C (second compound 0.0316 µM, first compound 0.316 µM): 15.3%
viability, T/C (second compound 0.0316 µM, first compound 1 µM): 12.8%
viability, T/C (second compound 0.1 µM, first compound 0.00316 µM): 14.2%
viability, T/C (second compound 0.1 µM, first compound 0.01 µM): 13.2%
viability, T/C (second compound 0.1 µM, first compound 0.0316 µM): 14.2%
viability, T/C (second compound 0.1 µM, first compound 0.1 µM): 11.5%
viability, T/C (second compound 0.1 µM, first compound 0.316 µM): 12.9%
viability, T/C (second compound 0.1 µM, first compound 1 µM): 14%
viability, T/C (second compound 0.316 µM, first compound 0.00316 µM): 13.4%
viability, T/C (second compound 0.316 µM, first compound 0.01 µM): 13.8%
viability, T/C (second compound 0.316 µM, first compound 0.0316 µM): 11.6%
viability, T/C (second compound 0.316 µM, first compound 0.1 µM): 12.6%
viability, T/C (second compound 0.316 µM, first compound 0.316 µM): 14.7%
viability, T/C (second compound 0.316 µM, first compound 1 µM): 11.6%
viability, T/C (second compound 1 µM, first compound 0.00316 µM): 14.1%
viability, T/C (second compound 1 µM, first compound 0.01 µM): 16.4%
viability, T/C (second compound 1 µM, first compound 0.0316 µM): 14.7%
viability, T/C (second compound 1 µM, first compound 0.1 µM): 13.7%
viability, T/C (second compound 1 µM, first compound 0.316 µM): 14.2%
viability, T/C (second compound 1 µM, first compound 1 µM): 14.3%

IC50 (second compound 0.00316 µM): < 0.949 nM
IC50 (second compound 0.01 µM): < 0.949 nM
IC50 (second compound 0.0316 µM): < 0.949 nM
IC50 (second compound 0.1 µM): < 0.949 nM
IC50 (second compound 0.316 µM): < 0.949 nM
IC50 (second compound 1 µM): < 0.949 nM
SMILES: CC1(C)CCC(Nc2ncc(C(F)(F)F)c(-c3c[nH]c4c(P(C)(C)=O)c(C#N)ccc34)n2)CN1 (stereo unspecified) + C=CC(=O)N1CCN(c2nc(OCC3CCCN3C)nc3c(F)c(-c4nc(N)cc(C)c4C(F)(F)F)c(Cl)cc23)C(C)C1
viability, T/C (second compound 0.00316 µM, first compound 0.000949 µM): 12.2%
viability, T/C (second compound 0.00316 µM, first compound 0.003 µM): 11.3%
viability, T/C (second compound 0.00316 µM, first compound 0.00949 µM): 11.2%
viability, T/C (second compound 0.00316 µM, first compound 0.03 µM): 13.6%
viability, T/C (second compound 0.00316 µM, first compound 0.0949 µM): 12.2%
viability, T/C (second compound 0.00316 µM, first compound 0.3 µM): 11.8%
viability, T/C (second compound 0.01 µM, first compound 0.000949 µM): 11.9%
viability, T/C (second compound 0.01 µM, first compound 0.003 µM): 10.2%
viability, T/C (second compound 0.01 µM, first compound 0.00949 µM): 10.1%
viability, T/C (second compound 0.01 µM, first compound 0.03 µM): 10.1%
viability, T/C (second compound 0.01 µM, first compound 0.0949 µM): 13%
viability, T/C (second compound 0.01 µM, first compound 0.3 µM): 12.4%
viability, T/C (second compound 0.0316 µM, first compound 0.000949 µM): 9.75%
viability, T/C (second compound 0.0316 µM, first compound 0.003 µM): 9.55%
viability, T/C (second compound 0.0316 µM, first compound 0.00949 µM): 10.2%
viability, T/C (second compound 0.0316 µM, first compound 0.03 µM): 11.2%
viability, T/C (second compound 0.0316 µM, first compound 0.0949 µM): 10.7%
viability, T/C (second compound 0.0316 µM, first compound 0.3 µM): 10.8%
viability, T/C (second compound 0.1 µM, first compound 0.000949 µM): 10.9%
viability, T/C (second compound 0.1 µM, first compound 0.003 µM): 9.77%
viability, T/C (second compound 0.1 µM, first compound 0.00949 µM): 10.7%
viability, T/C (second compound 0.1 µM, first compound 0.03 µM): 10.9%
viability, T/C (second compound 0.1 µM, first compound 0.0949 µM): 11.5%
viability, T/C (second compound 0.1 µM, first compound 0.3 µM): 10.2%
viability, T/C (second compound 0.316 µM, first compound 0.000949 µM): 10%
viability, T/C (second compound 0.316 µM, first compound 0.003 µM): 9.73%
viability, T/C (second compound 0.316 µM, first compound 0.00949 µM): 10.6%
viability, T/C (second compound 0.316 µM, first compound 0.03 µM): 10.2%
viability, T/C (second compound 0.316 µM, first compound 0.0949 µM): 12.2%
viability, T/C (second compound 0.316 µM, first compound 0.3 µM): 11.4%
viability, T/C (second compound 1 µM, first compound 0.000949 µM): 10.2%
viability, T/C (second compound 1 µM, first compound 0.003 µM): 11%
viability, T/C (second compound 1 µM, first compound 0.00949 µM): 10.4%
viability, T/C (second compound 1 µM, first compound 0.03 µM): 11.1%
viability, T/C (second compound 1 µM, first compound 0.0949 µM): 12.4%
viability, T/C (second compound 1 µM, first compound 0.3 µM): 12.3%
